# Test results published in patent US7470518B2 (priority 2002, dated 2008).
# Experiments:
# [1] = tested on: PC-12 cell
# Text: (§1) The patch clamp electrode solution contained 100-mM KCl, 2-mM MgCl2, 1-mM CaCl2, 11-mM EGTA, and 10-mM HEPES; pH was adjusted to 7.2 with KOH.
# (§2) In these applications, as discussed above, both the flow rate of the fluids exiting the microchannels and the scan rate of the patch clamped cell are important. […] The width of each channel is 100 μm, the thickness is 50 μm, and the interchannel spacing is 25 μm. The procedure used for fabricating the microchannels and for patch clamping are identical to that described in Example 2 (see above). The patch clamped cell used was a PC-12 cell, which was placed between 10 to 20 micrometers away from the outlets of the microchannels. Channels 1, 3, 5 and 7 were filled with PBS buffer, while channels 2, 4 and 6 were filled with acetylcholine. The flow rate of the fluid streams was 6.8 mm/s.
# The channel structure and experimental setup used in Example 3 can be used to carry out dose-response measurements, in which the concentrations of the ligands in each of the ligand streams differ by predetermined amounts. […] In this 7-channel structure, channels 1, 3, 5 and 7 were filled with PBS buffer, whereas channels 2, 4, and 6 were filled with 1 μM, 12 μM, and 200 μM nicotine, respectively. The flow rate used was 3.24 mm/s and the cell-scanning speed was 250 μm/s. The patch-clamped cell was placed between 10 to 20 μm away from the outlet of the microchannel.
# [2] = tested on: PC-12 cells; assay: Whole-cell patch clamp current response of PC-12 cells to 1 mM acetylcholine (re-sensitization and scanning experiments); format: cell-based; details: decrease of mean whole-cell current
# Text: as §1, §2
# [3] = target: T1, GABAA receptors (UniProt P28472+P62813); assay: Whole-cell patch clamp antagonist dose-response, bicuculline loaded together with GABA, microfluidic scanning; format: cell-based; details: for IC50: with 100 μM GABA
# T1 construct: expressed in transfected cells; host or cells: WSS-1 cells
# T1 sequence (P62813 28-455): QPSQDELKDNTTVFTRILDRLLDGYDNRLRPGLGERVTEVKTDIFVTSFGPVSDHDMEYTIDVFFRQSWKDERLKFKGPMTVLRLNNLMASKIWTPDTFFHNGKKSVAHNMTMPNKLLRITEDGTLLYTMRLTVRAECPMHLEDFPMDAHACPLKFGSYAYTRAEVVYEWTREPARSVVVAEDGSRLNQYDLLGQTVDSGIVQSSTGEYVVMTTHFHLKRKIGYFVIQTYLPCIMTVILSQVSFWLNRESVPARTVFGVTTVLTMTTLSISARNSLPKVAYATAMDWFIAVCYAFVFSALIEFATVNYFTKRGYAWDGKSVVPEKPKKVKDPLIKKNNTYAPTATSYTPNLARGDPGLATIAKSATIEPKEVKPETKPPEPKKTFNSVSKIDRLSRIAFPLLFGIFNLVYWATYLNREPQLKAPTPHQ
# T1 sequence (P28472 26-473): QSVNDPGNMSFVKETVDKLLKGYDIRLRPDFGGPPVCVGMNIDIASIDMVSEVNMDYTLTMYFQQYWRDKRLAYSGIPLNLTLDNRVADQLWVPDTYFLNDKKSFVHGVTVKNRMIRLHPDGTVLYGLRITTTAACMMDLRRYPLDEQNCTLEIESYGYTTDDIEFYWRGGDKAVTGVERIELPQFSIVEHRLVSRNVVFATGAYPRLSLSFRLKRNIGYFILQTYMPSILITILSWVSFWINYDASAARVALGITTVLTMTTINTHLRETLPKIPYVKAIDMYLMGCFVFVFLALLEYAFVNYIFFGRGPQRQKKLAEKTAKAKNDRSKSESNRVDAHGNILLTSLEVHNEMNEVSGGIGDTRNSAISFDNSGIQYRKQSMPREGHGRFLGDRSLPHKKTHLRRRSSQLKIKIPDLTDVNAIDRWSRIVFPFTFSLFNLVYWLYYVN
# T1 sequence (P18508 39-466 partner): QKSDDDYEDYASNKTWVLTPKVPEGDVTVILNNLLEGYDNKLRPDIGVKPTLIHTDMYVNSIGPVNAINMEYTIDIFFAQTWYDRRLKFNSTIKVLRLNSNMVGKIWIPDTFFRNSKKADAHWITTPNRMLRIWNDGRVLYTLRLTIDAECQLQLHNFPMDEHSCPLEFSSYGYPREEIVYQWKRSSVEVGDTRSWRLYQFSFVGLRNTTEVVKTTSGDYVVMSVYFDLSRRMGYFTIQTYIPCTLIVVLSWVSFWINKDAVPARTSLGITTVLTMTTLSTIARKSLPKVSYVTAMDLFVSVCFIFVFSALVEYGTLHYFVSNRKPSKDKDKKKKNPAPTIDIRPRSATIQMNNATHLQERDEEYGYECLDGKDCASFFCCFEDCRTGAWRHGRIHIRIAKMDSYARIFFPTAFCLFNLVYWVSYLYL
# Procedure: Electrophysiology experiments were performed using a commercially available microfluidic device for patch-clamp (Dynaflow 16, Cellectricon AB, Göteborg Sweden). The device has 16 channels of dimensions 50×57 μm (w×h) separated by 22 μm thick walls at the point of exit into the open volume. The volume of the 16 sample reservoirs is 80 μl and the dimensions of the open volume are 30×35 mm. Prior to experiments the device was loaded with different solutions using a micropipette. A 2 mm thick polycarbonate lid was attached over the sample reservoirs using double adhesive tape (3M, Stockholm, Sweden) to create a closed system. The lid was connected to a syringe with PE tubing and a syringe pump (CMA/100, microinjection pump, Carnegie Medicine, Cambridge, UK) was used to compress the air enclosed by the lid to initiate a well defined pressure driven flow in the channels.
# Adherent WSS-1 cells were cultivated in Petri dishes for 4-8 days in (DMEM/F12) medium supplemented with antibiotics and antimycotin (0.2%), fetal calf serum (10%), and L-glutamine. Before the experiments, cells were washed and detached in a HEPES-saline buffer (HBS) containing (in mM): 10 HEPES, 140 NaCl, 5 KCl, 1 CaCl2, 1 MgCl2, and 10 D-glucose (pH 7.4). All chemicals used in the cell cultures were from Sigma-Aldrich (Sigma-Aldrich Sweden AB, Stockholm, Sweden).
# Patch clamp experiments were carried out in the whole-cell configuration (holding potential −60 mV, sampling frequency 5 kHz filter frequency 1 KHz). The cell bath solution (HBS) contained 10-mM HEPES, 140 -mM NaCl, 5-mM KCl, 1-mM CaCl2, 1-mM MgCl2, 10-mM D-glucose (pH 7.4). The patch clamp electrode solution contained 100-mM KCl, 2-mM MgCl2, 1-mM CaCl2, 11-mM EGTA, and 10-mM HEPES; pH was adjusted to 7.2 with KOH. The experiments were performed at room temperature (18-22° C.).
# The competitive antagonist bicuculline was used at the concentrations of 0.01, 0.1, 1, 5, 10, 100 μM. […] As in the experiments with agonist, every second channel was filled with buffer solution for cleansing, and a resting time in buffer of at least three minutes was used before a return scan was made. Dose-response curves were obtained with texp of 100 ms and 3 s. […] FIGS. 34a and b show the results of a patch-clamp experiment. […] These sample channels were interdigitized with buffer channels in every other channel, and the exposure time were set to either 100 ms or 3 s.
compound,measurement,setting,value
CN1CCCC1c1cccnc1 (centres unmarked) [nicotine],whole-cell current response,[1]; 1 μM nicotine,barely discernible
same,whole-cell current peak,[1]; 12 μM nicotine,detected with good signal-to-noise ratio
CC(=O)OCC[N+](C)(C)C [acetylcholine],exposure time to the agonist after which de-sensitization of the current response is observed,[2],> 5 s
CN1CCc2cc3c(cc2[C@H]1[C@@H]1OC(=O)c2c1ccc1c2OCO1)OCO3 [bicuculline],IC20,[3],~1 µM
same,IC50,"[3]; IC50, ascending order, texp=3 s",8.46 ± 1.4 µM
same,IC50,"[3]; IC50, ascending order, texp=100 ms",5.17 ± 0.4 µM
same,IC50,"[3]; IC50, descending order, texp=3 s",1.84 ± 0.4 µM
same,IC50,"[3]; IC50, descending order, texp=100 ms",3.56 ± 0.9 µM
